Assay results: paper PMC11681865, “Oligomerization of protein arginine methyltransferase 1 and its functional impact on substrate arginine methylation” (The Journal of Biological Chemistry, 2024)
“Also recorded” adds a separate entry of the source.

How the values were obtained:
PRMT1 [1] = target: T1, PRMT1 (Homo sapiens, UniProt Q99873); assay: Dynamic light scattering of PRMT1 oligomers; format: physicochemical; details: pH 8, 25 °C; for disruption of PRMT1 oligomers by denaturant: 6 M guanidine hydrochloride or 5 M guanidine thiocyanate
T1 construct: human PRMT1 protein (amino acid residue 11–353); His6; made in house
T1 sequence (Q99873 11-353 isoform Q99873-3): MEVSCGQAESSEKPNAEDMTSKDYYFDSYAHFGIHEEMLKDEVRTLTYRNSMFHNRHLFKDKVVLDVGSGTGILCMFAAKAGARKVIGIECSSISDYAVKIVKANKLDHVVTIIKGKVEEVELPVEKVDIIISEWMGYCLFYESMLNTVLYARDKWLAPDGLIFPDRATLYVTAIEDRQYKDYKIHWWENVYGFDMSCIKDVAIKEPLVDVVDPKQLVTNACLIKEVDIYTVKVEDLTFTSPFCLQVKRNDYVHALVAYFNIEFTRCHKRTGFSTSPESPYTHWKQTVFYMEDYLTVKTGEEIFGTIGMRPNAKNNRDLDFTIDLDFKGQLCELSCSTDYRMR
Text: Dynamic light scattering (DLS) uses a laser to measure the particle size distribution ([26]). The DLS can give information regarding the heterogeneity of protein in a sample ([27]). In the past, DLS was used to study microbial and viral structure ([28]). Nowadays, DLS is a popular method for studying nanoparticles, liposomes, and exosomes ([29], [30], [31], [32]). Researchers have also used DLS to study the protein folding of bovine serum albumin ([33]). Therefore, we envisage that the DLS can be utilized to analyze the size changes of PRMT1 oligomeric compositions in an aqueous solution. We expect to see an increase in size with increasing protein concentrations. The prepared PRMT1 protein at varied concentrations was allowed to incubate in the aqueous buffer for equilibrium on ice for 10 min. The protein solution was filtered with 0.2-micron filter to remove any big interfering particles. The protein size was analyzed using a Malvern Zetasizer instrument. We took an average of three runs with about 25 scans each time to evaluate the data. […] Guanidine hydrochloride is a popular protein denaturant ([34]). […] As a negative control, we incubated PRMT1 in the presence of 6 M guanidine hydrochloride to disrupt oligomer formation. […] A literature reported that guanidine thiocyanate is a stronger denaturant than guanidine hydrochloride ([35]).
Figure 2 Oligomerization of PRMT1 detection by dynamic light scattering. Various concentrations of PRMT1 were incubated on ice for 10 min, then filtered by 0.2-micron syringe filter and collected data from the DLS. The top line with black circle indicates PRMT1 without denaturant. The open triangle and hexagon lines indicated PRMT1 oligomeric structure disrupted by 6 M guanidine hydrochloride and 5 M guanidine thiocyanate, respectively.
Indicated concentrations of PRMT1 were incubated for 10 min on ice with buffer (50 mM Hepes pH 8, 10 mM NaCl, 0.5 mM EDTA, 0.5 mM DTT) and filtered through the 0.22 μm syringe filter. For the experiment to disrupt the oligomer formation, 6 M of guanidine hydrochloride or 5 M of guanidine thiocyanate was added to the reaction. The samples were injected into the 1 ml disposable cuvette and measured by Zetasizer Nano ZS (Malvern Instruments) at 25 °C. Three measurements of 25 scans each were collected to average. The data was analyzed by the Malvern Zetasizer software v7.10.

PRMT1 [2] = target: T1, PRMT1; assay: Stopped-flow fluorescence dissociation of H4FL from PRMT1; format: binding; details: for koff: 1:25 dilution, pH 8.0, ex 498 / em 524, at least three shots averaged, single exponential
Text: We next utilized the stopped-flow technique to measure the dissociation rates of peptide substrate from PRMT1 at different PRMT1 concentrations. We used a rapid dilution experiment with stopped flow fluorescence to measure the dissociation rate of H4 peptide from PRMT1. […] We reasoned that the changes of fluorescence intensity can be used to measure dissociation rate of H4 substrate. In the experiment, the H4FL was premixed with PRMT1 and loaded into the sample chamber of the stopped flow equipment. The mixture was rapidly mixed with an access buffer which initiated the dissociation of H4FL from PRMT1 on the millisecond scale. […] The averaged data curves were fitted to the single exponential equation to yield dissociation rate constant koff. The koff was 42.27 s^−1 at 0.5 μM of PRMT1, the koff was 22.29 s^−1at 1.5 μM of PRMT1, and the koff was 17.65 s^−1 at 5 μM of PRMT1 (Fig. 9D).
Figure 9 Oligomerization helps PRMT1 retain its substrate. The experiment was carried out by the SX20 stopped-flow spectrometers with (A) 0.5 μM, (B) 1.5 μM, and (C) 5 μM of PRMT1. The PRMT1 was premixed with 0.8 μM H4FL peptide. The mixture was diluted with the reaction buffer for a 1:25 dilution when the reaction was run. D, data summary of koff. TEXT PRINTED IN THE PICTURE: (D) no label printed: koff: 42.27 s^-1 (Concentration of PRMT1: 0.5 μM); koff: 22.29 s^-1 (Concentration of PRMT1: 1.5 μM); koff: 17.65 s^-1 (Concentration of PRMT1: 5 μM)
The trapping experiment to measure the dissociation rate of PRMT1 was carried out using the SX20 stopped-flow spectrometers (Applied Photophysics). The setting for excitation was 498 and emission was 524. A constant concentration of 0.8 μM of H4FL peptide (Peptide Sequence: Ac-[…]pr(FL)[…], in which FL stands for fluorescein) was pre-mix with 0.5 μM, 1.5 μM, and 5.0 μM of PRMT1. The mixture was loaded on the 100 μl drive syringe. Another 2.5 ml drive syringe was loaded with reaction buffer (50 mM Hepes pH 8.0, 10 mM NaCl, 0.5 mM EDTA, and 0.5 mM DTT) to create the 1:25 dilution factor. At least three shots were averaged for each reaction and fitted to the single exponential function. F is the fluorescence intensity, t is time, A is the amplitude of fluorescence, k is the dissociation rate constant, and C is the final value of fluorescence.(2) F=Aexp(−kt)+C

PRMT1-WT [3] = target: T2, PRMT1-WT (Homo sapiens, UniProt Q99873); assay: Steady-state kinetics, radiometric filter-binding assay, PRMT1-WT; format: biochemical
T2 construct: His-MBP (N, cleaved yes); made in house; host or cells: Escherichia coli BL21 (DE3) RIPL
T2 sequence (Q99873 11-353 isoform Q99873-3): as above
Text: To gain further insights into the effect of oligomerization on the PRMT1 activity, we measured the steady-state kinetic parameters of different peptide substrates under PRMT1 catalysis using the radiometric assay. […] A constant concentration of PRMT1-WT was mixed with various concentrations of peptide and a constant concentration of radioactive SAM. After quenching the reaction, the reaction mixture was loaded onto the P81 filter paper that was washed, air-dried, and soaked in scintillation cocktail for scintillation counting. The rates of methylation as a function of the peptide concentration were plotted in Figure 8A and fit with the Hill equation to obtain catalytic parameters kcat and K0.5 (Fig. 8B).
Figure 8 Steady state kinetic characterization of PRMT1 catalysis in oligomeric states. Radioactive kinetic parameters were measured using filter-binding assay. […] The reaction time was 15 min at 30 °C and quenched with 100% isopropanol. For the reaction with PRMT1-E153Q, 0.05 μM PRMT1-E153Q was incubated on ice with PRMT1 for 20 min equilibration before adding SAM and peptide. A, kinetic parameters of oligomeric states in graphical form. B, representation of the kinetic parameters in kcat, K0.5, and kcat/K0.5.
Each reaction sample was consisted of 0.05 μM PRMT1, 15 μM ^14C-SAM, and various concentrations of peptide. […]

PRMT1-WT [4] = target: T2, PRMT1-WT; assay: Radiometric P81 filter-binding assay, PRMT1-WT concentration dependence; format: biochemical; details: 50 μM peptide, 2 μM [3H]-SAM and 48 μM SAM, 30 min, room temperature, pH 8.0
Text: We used the phosphocellulose P81 filter paper–binding assay to measure the catalytic activity of PRMT1 at different concentrations on individual peptides. Each reaction mixture was composed of PRMT1-WT at varied concentrations, at fixed concentrations of SAM and peptide. The reaction mixture was quenched with isopropanol, transferred to the P81 filter paper, and washed with sodium bicarbonate buffer (pH 9). […] The measured count-per-minute (CPM) values correlated directly with the amounts of methylated peptide products. In a typical enzymatic catalysis, the product should be formed linearly as a function of enzyme concentration.
Various concentrations of PRMT1-WT were incubated with radioactive 2 μM [3H]-SAM and 48 μM SAM and 50 μM of indicated peptides for 30 min. The reaction was quenched with 100% isopropanol.
The reaction buffer consisted of 50 mM Hepes pH 8.0, 10 mM NaCl, 0.5 mM EDTA, and 0.5 mM DTT. The reaction was incubated at room temperature for 30 min after being initiated with ^3H-SAM SAM. An equal amount of 100% isopropanol to the total reaction volume was used to quench the reaction. The reaction liquid was transferred onto the phosphocellulose P81 filter paper (1.1 cm × 2 cm, Protein Chemistry & Metabolism Unit at St Vincent's Institute of Medical Research). The P81 filter papers containing the samples were left at room temperature for 30 min to airdry. […]

[5] = target: Human PRMT1 (11-353), His-MBP tag removed (human)

Question: Which results are given for `Cl.N=C(N)N` [guanidine hydrochloride]?
Answer: disruption of PRMT1 oligomers by denaturant (PRMT1 [1]): substantially smaller than those values without guanidine hydrochloride; highest Z-average of PRMT1 in presence of denaturant (PRMT1 [1]; 6 M guanidine hydrochloride, average of three runs of 25 scans): 8.43 nm

Question: Which results are given for `N#CS.N=C(N)N` [guanidine thiocyanate]?
Answer: Z-average of PRMT1 in presence of denaturant (PRMT1 [1]; 5 M guanidine thiocyanate, average of three runs of 25 scans): 1.27 nm; disruption of PRMT1 oligomers by denaturant (PRMT1 [1]): better at denaturing PRMT1 oligomers than guanine hydrochloride

Question: With “Ac-SGRGKGGKGDpr(FL)GKGGAKRHRK [H4FL, fluorescently labeled H4 peptide]” as the compound, how does the koff (PRMT1 [2]; 0.5 μM PRMT1, 0.8 μM H4FL) read?
Answer: Its koff is 42.27 s⁻¹.

Question: What about the koff (PRMT1 [2]; 1.5 μM PRMT1, 0.8 μM H4FL) of the same compound?
Answer: Its koff is 22.29 s⁻¹.

Question: And the koff (PRMT1 [2]; 5 μM PRMT1, 0.8 μM H4FL)?
Answer: Its koff is 17.65 s⁻¹.

Question: What about the “koff vs PRMT1 concentration / oligomeric state” value (PRMT1 [2]; 0.5, 1.5 and 5 μM PRMT1) of the same compound?
Answer: The value was “the koff decreased as PRMT1 concentration increased; also recorded: smaller at higher oligomeric states”.

Question: Which results are given for Ac-SGRGKGGKGLGKGGAK [Ac-H4(1–16)]?
Answer: K0.5 / binding comparison of Ac-H4(1–16) and longer H4 peptide (PRMT1-WT [3]): greater than Ac-H4(1–22); also recorded: weaker PRMT1 binding; kcat, fold lower than Ac-H4(1–22) (PRMT1-WT [3]; Ac-H4(1–16) vs Ac-H4(1–22)): 1.3 fold

Question: “Ac-SGRmeGKGGKGLGKGGAKRHRK [Ac-H4(1–20)R3me]” was tested. Which “PRMT1 enzymatic activity (CPM) vs PRMT1 concentration” value (PRMT1-WT [4]) did it give?
Answer: Its value is “increase as higher-order oligomeric structures were formed”.

Question: Which dimethylated R4me2 (MALDI-MS, percent relative to R4 peptide), 0.5 μM PRMT1-WT with 0 to 2 μM PRMT1-E153Q [5] does the source give for “PRMT1-E153Q, catalytically inactive mutant (enzyme)” here?
Answer: Its dimethylated R4me2 (MALDI-MS, percent relative to R4 peptide), 0.5 μM PRMT1-WT with 0 to 2 μM PRMT1-E153Q is 5.85%.

Question: And the monomethylated product R4me1 (MALDI-MS, percent relative to R4 peptide), 0.5 μM PRMT1-WT with 0 to 2 μM PRMT1-E153Q [5]?
Answer: Its monomethylated product R4me1 (MALDI-MS, percent relative to R4 peptide), 0.5 μM PRMT1-WT with 0 to 2 μM PRMT1-E153Q is 20.2%.
